Experimental data reported in ChEMBL document CHEMBL1141998, “Synthesis and evaluation of pyrazolidine derivatives as dipeptidyl peptidase IV (DP-IV) inhibitors” (Bioorg Med Chem Lett, 2005).

Target: Dipeptidyl peptidase 4 (Rattus norvegicus, UniProt P14740)
Assay: Inhibitory activity against dipeptidyl peptidase IV (DP-IV)

Dipeptidyl peptidase 4, sequence (P14740 whole entry): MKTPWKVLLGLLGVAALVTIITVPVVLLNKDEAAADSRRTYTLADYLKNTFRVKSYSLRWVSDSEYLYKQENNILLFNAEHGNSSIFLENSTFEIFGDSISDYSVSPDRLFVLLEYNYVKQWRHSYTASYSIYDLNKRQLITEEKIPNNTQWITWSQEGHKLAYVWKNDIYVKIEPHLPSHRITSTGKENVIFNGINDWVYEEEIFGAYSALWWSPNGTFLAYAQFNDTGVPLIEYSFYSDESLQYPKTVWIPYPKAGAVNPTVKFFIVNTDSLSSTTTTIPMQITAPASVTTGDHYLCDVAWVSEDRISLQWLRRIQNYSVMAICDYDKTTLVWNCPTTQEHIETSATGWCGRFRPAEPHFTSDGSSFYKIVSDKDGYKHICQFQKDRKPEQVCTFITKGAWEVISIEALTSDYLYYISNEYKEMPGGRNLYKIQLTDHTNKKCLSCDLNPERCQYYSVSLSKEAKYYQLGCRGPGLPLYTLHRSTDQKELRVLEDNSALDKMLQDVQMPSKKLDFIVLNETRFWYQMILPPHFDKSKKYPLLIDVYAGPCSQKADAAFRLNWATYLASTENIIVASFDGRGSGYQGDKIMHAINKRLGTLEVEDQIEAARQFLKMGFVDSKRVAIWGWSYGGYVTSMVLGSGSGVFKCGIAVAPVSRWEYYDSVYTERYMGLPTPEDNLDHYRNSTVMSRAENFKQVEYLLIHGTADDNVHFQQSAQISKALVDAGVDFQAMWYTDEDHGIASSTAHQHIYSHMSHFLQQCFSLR

| IC50 | Compound |
| --- | --- |
| 20.7 µM | CC(C)C[C@H](N)C(=O)N1CCCN1C(=O)Nc1cccc([N+](=O)[O-])c1 |
| 2.1 µM | CC(C)[C@H](N)C(=O)N1CCCN1C(=O)Nc1cccc([N+](=O)[O-])c1 |
| 4.6 µM | O=C(CNC1CCCCC1)N1CCCN1C(=O)Nc1cccc([N+](=O)[O-])c1 |
| 1.56 µM | CCC(C)[C@H](N)C(=O)N1CCCN1C(=O)Nc1cccc([N+](=O)[O-])c1 (stereo not given in full) |
| 23.3 µM | CCC(C)[C@H](N)C(=O)N1CCCN1C(=O)OCc1ccccc1 (stereo not given in full) |
| 3.9 µM | CCOC(=O)c1ccc(NC(=O)N2CCCN2C(=O)[C@@H](N)C(C)CC)cc1 (stereo not given in full) |
| 5.6 µM | CCC(C)[C@H](N)C(=O)N1CCCN1C(=O)Nc1ccc(Cl)c(Cl)c1 (stereo not given in full) |
| 2.27 µM | CCC(C)[C@H](N)C(=O)N1CCCN1C(=O)Nc1ccc([N+](=O)[O-])c(F)c1 (stereo not given in full) |
| 9.2 µM | CCC(C)[C@H](N)C(=O)N1CCCN1C(=O)Nc1ccc(C#N)cc1 (stereo not given in full) |
| 25 µM | CCC(C)[C@H](N)C(=O)N1CCCN1C(=O)Nc1ccc(C(F)(F)F)cc1 (stereo not given in full) |
| 7.06 µM | CCC(C)[C@H](N)C(=O)N1CCCN1C(=O)Nc1ccc([N+](=O)[O-])cc1 (stereo not given in full) |
| 15 µM | CCC(C)[C@H](N)C(=O)N1CCCN1C(=O)Nc1ccccc1 (stereo not given in full) |
| 4.04 µM | CCC(C)[C@H](N)C(=O)N1CCCN1C(=O)Nc1cccc(C#N)c1 (stereo not given in full) |
| 8.8 µM | CCOC(=O)c1cccc(NC(=O)N2CCCN2C(=O)[C@@H](N)C(C)CC)c1 (stereo not given in full) |

| Compound | IC50 |
| --- | --- |
| CCC(C)[C@H](N)C(=O)N1CCCN1C(=O)Nc1ccc([N+](=O)[O-])c(Cl)c1 (stereo not given in full) | 4.71 µM |
